Source: patent US8501946B2 (Glaxo Group Limited, priority 2009, dated 2013)

What follows are compounds tested against T1, human recombinant P2X7 receptors (Homo sapiens, UniProt Q99572) (assay: Ethidium Accumulation Assay 1 (HEK293 cells, ATP-induced ethidium uptake)). Details: HEK293 cells expressing human P2X7; 1 mM ATP; sometimes mean of more than one measurement; read-out: Assay 1 (antagonist pIC50 for blocking ATP responses) (converted).
T1 construct: expressed in transfected cells
T1 sequence (Q99572 1-595): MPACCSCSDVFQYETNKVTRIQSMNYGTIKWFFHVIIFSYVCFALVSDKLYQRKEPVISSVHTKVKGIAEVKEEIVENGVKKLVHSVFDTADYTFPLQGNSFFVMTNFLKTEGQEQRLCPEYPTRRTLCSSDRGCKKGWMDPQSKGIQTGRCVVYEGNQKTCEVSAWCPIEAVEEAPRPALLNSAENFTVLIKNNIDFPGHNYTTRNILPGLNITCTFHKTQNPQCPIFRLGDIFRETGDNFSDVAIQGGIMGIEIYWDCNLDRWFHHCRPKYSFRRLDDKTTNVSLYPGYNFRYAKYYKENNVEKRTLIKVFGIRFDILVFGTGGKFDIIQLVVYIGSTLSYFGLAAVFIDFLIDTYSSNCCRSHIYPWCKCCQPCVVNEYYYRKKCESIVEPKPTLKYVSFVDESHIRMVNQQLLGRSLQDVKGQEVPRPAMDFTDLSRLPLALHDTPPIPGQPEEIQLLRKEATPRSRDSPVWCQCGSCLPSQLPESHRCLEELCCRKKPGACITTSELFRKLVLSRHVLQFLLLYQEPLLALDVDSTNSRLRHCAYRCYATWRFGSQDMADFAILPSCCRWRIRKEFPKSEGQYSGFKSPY
Format: cell-based

Which IC50 does the source give for Cc1cc(-c2nnc3n2CCN(C(=O)c2cccc(Cl)c2Cl)C3)no1 [Example 49, 7-[(2,3-dichlorophenyl)carbonyl]-3-(5-methyl-3-isoxazolyl)-5,6,7,8-tetrahydro[1,2,4]triazolo [4,3-a]pyrazine] here?
The IC50 was < 100 nM.

For O=C(c1ccc(F)cc1Cl)N1CCn2c(nnc2-c2ccc(F)c(F)c2)C1 [Example 124, 7-[(2-chloro-4-fluorophenyl)carbonyl]-3-(3,4-difluorophenyl)-5,6,7,8-tetrahydro[1,2,4]triazolo[4,3-a]pyrazine], which IC50 is on record?
The IC50 was < 100 nM.

Which IC50 does the source give for O=C(c1cccc(C(F)(F)F)c1Cl)N1CCn2c(nnc2-c2ncccn2)C1 [Example 50, 7-{[2-chloro-3-(trifluoromethyl)phenyl]carbonyl}-3-(2-pyrimidinyl)-5,6,7,8-tetrahydro[1,2,4]triazolo [4,3-a]pyrazine] here?
The IC50 was < 10 nM.

For O=C(c1ccccc1Cl)N1CCn2c(nnc2-c2ncccc2F)C1 [Example 121, 7-[(2-chlorophenyl)carbonyl]-3-(3-fluoro-2-pyridinyl)-5,6,7,8-tetrahydro[1,2,4]triazolo[4,3-a]pyrazine], which IC50 is on record?
The IC50 was < 100 nM.

How did the IC50 turn out when O=C(c1cccc(C(F)(F)F)c1Cl)N1CCn2c(nnc2C(F)(F)F)C1 [Example 2, 7-{[2-chloro-3-(trifluoromethyl)phenyl]carbonyl}-3-(trifluoromethyl)-5,6,7,8-tetrahydro[1,2,4]triazolo [4,3-a]pyrazine] was run?
Its IC50 is < 100 nM.

CNc1nnc2n1CCN(C(=O)c1cccc(C(F)(F)F)c1Cl)C2 [Example 21, 7-{[2-chloro-3-(trifluoromethyl)phenyl]carbonyl}-N-methyl-5,6,7,8-tetrahydro[1,2,4]triazolo [4,3-a]pyrazine-3-amine] was tested. Which IC50 did it give?
Its IC50 is < 501 nM.

O=C(c1cccc(C(F)(F)F)c1Cl)N1CCn2c(nnc2-c2ccncc2)C1 [Example 10, 7-{[2-Chloro-3-(trifluoromethyl)phenyl]carbonyl}-3-(4-pyridinyl)-5,6,7,8-tetrahydro[1,2,4]triazolo[4,3-a]pyrazine] was tested. Which IC50 did it give?
The IC50 was < 100 nM.

With O=C(c1ccc(F)cc1Cl)N1CCn2c(nnc2-c2cccc(F)c2)C1 [Example 123, 7-[(2-chloro-4-fluorophenyl)carbonyl]-3-(3-fluorophenyl)-5,6,7,8-tetrahydro[1,2,4]triazolo[4,3-a]pyrazine] as the compound, how does the IC50 read?
The IC50 was < 100 nM.

With Cc1cc(-c2nnc3n2CCN(C(=O)c2cccc(C(F)(F)F)c2Cl)C3)no1 [Example 36, 7-{[2-chloro-3-(trifluoromethyl)phenyl]carbonyl}-3-(5-methyl-3-isoxazolyl)-5,6,7,8-tetrahydro[1,2,4]triazolo [4,3-a]pyrazine] as the compound, how does the IC50 read?
The IC50 was < 100 nM.

Which IC50 does the source give for O=C(c1cccc(Cl)c1Cl)N1CCn2c(nnc2-c2ccc[nH]2)C1 [Example 64, 7-[(2,3-dichlorophenyl)carbonyl]-3-(1H-pyrrol-2-yl)-5,6,7,8-tetrahydro[1,2,4]triazolo [4,3-a]pyrazine] here?
Its IC50 is < 10 nM.

O=C(c1cccc(Cl)c1Cl)N1CCn2c(nnc2-c2ccc(F)cn2)C1 [Example 54, 7-[(2,3-dichlorophenyl)carbonyl]-3-(5-fluoro-2-pyridinyl)-5,6,7,8-tetrahydro[1,2,4]triazolo [4,3-a]pyrazine] was tested. Which IC50 did it give?
Its IC50 is < 10 nM.

Which IC50 does the source give for Cc1cc(-c2nnc3n2CCN(C(=O)c2ccc(F)cc2Cl)C3)no1 [Example 71, 7-[(2-chloro-4-fluorophenyl)carbonyl]-3-(5-methyl-3-isoxazolyl)-5,6,7,8-tetrahydro[1,2,4]triazolo [4,3-a]pyrazine] here?
Its IC50 is < 501 nM.

With O=C(c1cccc(Cl)c1Cl)N1CCn2c(nnc2-c2ccccc2)C1 [Example 70, 7-[(2,3-dichlorophenyl)carbonyl]-3-phenyl-5,6,7,8-tetrahydro[1,2,4]triazolo [4,3-a]pyrazine] as the compound, how does the IC50 read?
Its IC50 is < 10 nM.

With O=C(c1cccc(C(F)(F)F)c1Cl)N1CCn2c(nnc2N2CCCC2)C1 [Example 19, 7-{[2-chloro-3-(trifluoromethyl)phenyl]carbonyl}-3-(1-pyrrolidinyl)-5,6,7,8-tetrahydro[1,2,4]triazolo [4,3-a]pyrazine] as the compound, how does the IC50 read?
Its IC50 is < 100 nM.

Which IC50 does the source give for O=C(c1ccc(Cl)cc1Cl)N1CCn2c(nnc2-c2ccc(F)cn2)C1 [Example 95, 7-[(2,4-dichlorophenyl)carbonyl]-3-(5-fluoro-2-pyridinyl)-5,6,7,8-tetrahydro[1,2,4]triazolo [4,3-a]pyrazine] here?
The IC50 was < 100 nM.

Which IC50 does the source give for O=C(c1ccc(F)c(Cl)c1)N1CCn2c(nnc2-c2cnccn2)C1 [Example 105, 7-[(3-chloro-4-fluorophenyl)carbonyl]-3-(2-pyrazinyl)-5,6,7,8-tetrahydro[1,2,4]triazolo [4,3-a]pyrazine] here?
The IC50 was < 100 nM.

How did the IC50 turn out when O=C(c1c(Cl)cc(Cl)cc1Cl)N1CCn2c(Br)nnc2C1 [Example 8, 3-bromo-7-[(2,4,6-trichlorophenyl)carbonyl]-5,6,7,8-tetrahydro[1,2,4]triazolo [4,3-a]pyrazine] was run?
The IC50 was < 501 nM.

Which IC50 does the source give for O=C(c1cccc(C(F)(F)F)c1F)N1CCn2c(Br)nnc2C1 [Example 9, 3-bromo-7-{[2-fluoro-3-(trifluoromethyl)phenyl]carbonyl}-5,6,7,8-tetrahydro[1,2,4]triazolo [4,3-a]pyrazine] here?
Its IC50 is < 100 nM.

Which IC50 does the source give for O=C(c1ccc(F)cc1Cl)N1CCn2c(nnc2-c2ccc(F)cn2)C1 [Example 40, 7-[(2-chloro-4-fluorophenyl)carbonyl]-3-(5-fluoro-2-pyridinyl)-5,6,7,8-tetrahydro[1,2,4]triazolo [4,3-a]pyrazine] here?
The IC50 was < 100 nM.

For O=C(c1ccccc1Cl)N1CCn2c(nnc2-c2cscn2)C1 [Example 103, 7-[(2-chlorophenyl)carbonyl]-3-(1,3-thiazol-4-yl)-5,6,7,8-tetrahydro[1,2,4]triazolo [4,3-a]pyrazine], which IC50 is on record?
The IC50 was < 10 nM.

With O=C(c1cccc(C(F)(F)F)c1Cl)N1CCn2c(nnc2N2CCOCC2)C1 [Example 18, 7-{[2-Chloro-3-(trifluoromethyl)phenyl]carbonyl}-3-(4-morpholinyl)-5,6,7,8-tetrahydro[1,2,4]triazolo[4,3-a]pyrazine] as the compound, how does the IC50 read?
Its IC50 is < 501 nM.

O=C(c1cccc(C(F)(F)F)c1Cl)N1CCn2c(nnc2-c2ncccc2F)C1 [Example 52, 7-{[2-chloro-3-(trifluoromethyl)phenyl]carbonyl}-3-(3-fluoro-2-pyridinyl)-5,6,7,8-tetrahydro[1,2,4]triazolo [4,3-a]pyrazine] was tested. Which IC50 did it give?
Its IC50 is < 10 nM.

Which IC50 does the source give for O=C(c1ccc(F)cc1Cl)N1CCn2c(nnc2-c2cnccn2)C1 [Example 85, 7-[(2-chloro-4-fluorophenyl)carbonyl]-3-(2-pyrazinyl)-5,6,7,8-tetrahydro[1,2,4]triazolo[4,3-a]pyrazine] here?
Its IC50 is < 10 nM.

Which IC50 does the source give for O=C(c1cccc(C(F)(F)F)c1Cl)N1CCn2c(nnc2C2CC2)C1 [Example 133, 7-{[2-chloro-3-(trifluoromethyl)phenyl]carbonyl}-3-cyclopropyl-5,6,7,8-tetrahydro[1,2,4]triazolo[4,3-a]pyrazine] here?
Its IC50 is < 100 nM.

How did the IC50 turn out when O=C(c1ccc(F)cc1Cl)N1CCn2c(nnc2-c2cccc(F)n2)C1 [Example 41, 7-[(2-chloro-4-fluorophenyl)carbonyl]-3-(6-fluoro-2-pyridinyl)-5,6,7,8-tetrahydro[1,2,4]triazolo [4,3-a]pyrazine] was run?
The IC50 was < 501 nM.

How did the IC50 turn out when O=C(c1ccc(Cl)cc1F)N1CCn2c(nnc2-c2cnccn2)C1 [Example 106, 7-[(4-chloro-2-fluorophenyl)carbonyl]-3-(2-pyrazinyl)-5,6,7,8-tetrahydro[1,2,4]triazolo [4,3-a]pyrazine] was run?
Its IC50 is < 10 nM.
